Patent US9290451B2 (Hoffmann-La Roche Inc., priority 2011, dated 2016)

Key:
human CB2 receptors = human CB2 receptors (Homo sapiens (Human), UniProt P34972); assay: cAMP assay, CHO cells expressing human CB2 receptors; assay type: cell-based; details: CHO cells expressing human CB2, cAMP; read-out: human CB2 EC50
Summary of the method: (§1)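 Read-out is TR-FRET (excitation 355 nm, emission 730/645 nm) after cell lysis, with cAMP content taken from a standard curve and EC50 calculated. Cells were pretreated with 1 mM IBMX in Krebs Ringer bicarbonate buffer, then incubated with compounds for 30 min at 30 °C.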

human CB1 receptors = human CB1 receptors (Homo sapiens (Human), UniProt P21554); assay: cAMP assay, CHO cells expressing human CB1 receptors; assay type: cell-based; details: CHO cells expressing human CB1, cAMP; read-out: human CB1 EC50
Summary of the method: as §1

Sequence of human CB1 receptors (P21554 whole entry): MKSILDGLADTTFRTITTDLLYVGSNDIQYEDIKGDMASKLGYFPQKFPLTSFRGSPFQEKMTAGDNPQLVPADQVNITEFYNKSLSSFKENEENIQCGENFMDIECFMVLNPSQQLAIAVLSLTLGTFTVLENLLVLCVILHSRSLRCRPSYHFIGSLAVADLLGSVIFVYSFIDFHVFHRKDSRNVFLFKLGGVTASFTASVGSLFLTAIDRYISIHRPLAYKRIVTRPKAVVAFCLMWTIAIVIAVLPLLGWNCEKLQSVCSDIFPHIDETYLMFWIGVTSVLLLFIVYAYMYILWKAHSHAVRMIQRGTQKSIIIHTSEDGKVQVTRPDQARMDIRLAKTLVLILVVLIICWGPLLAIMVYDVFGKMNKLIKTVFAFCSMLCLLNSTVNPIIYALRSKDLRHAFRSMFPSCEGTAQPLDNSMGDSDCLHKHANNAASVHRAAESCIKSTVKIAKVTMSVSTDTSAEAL
Sequence of human CB2 receptors (P34972 whole entry): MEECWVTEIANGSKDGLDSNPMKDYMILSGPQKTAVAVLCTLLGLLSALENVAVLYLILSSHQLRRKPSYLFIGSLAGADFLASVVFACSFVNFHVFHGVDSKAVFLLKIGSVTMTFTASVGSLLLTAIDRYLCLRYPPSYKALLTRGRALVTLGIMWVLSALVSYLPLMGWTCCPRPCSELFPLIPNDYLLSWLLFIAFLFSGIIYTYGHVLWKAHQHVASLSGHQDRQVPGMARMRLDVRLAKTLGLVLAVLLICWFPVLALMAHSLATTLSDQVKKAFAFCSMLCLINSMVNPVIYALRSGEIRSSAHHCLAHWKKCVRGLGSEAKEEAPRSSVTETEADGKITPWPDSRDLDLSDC

Structure (SMILES)	EC50 (human CB2 receptors)	EC50 (human CB1 receptors)
Cc1nc([C@H](CC2CC2)NC(=O)c2ccc(N3CC(F)(F)C3)c(OCC3CC3)n2)no1 [Example 138, 6-Cyclopropylmethoxy-5-(3,3-difluoro-azetidin-1-yl)-pyridine-2-carboxylic acid [(S)-2-cyclopropyl-1-(5-methyl-[1,2,4]oxadiazol-3-yl)-ethyl]-amide]	0.0267 µM	> 10 µM
CNC(=O)[C@H](CC(C)C)NC(=O)c1cccc(-c2cccc(F)c2)n1 [Example 210, (S)-6-(3-Fluorophenyl)-N-(4-methyl-1-(methylamino)-1-oxopentan-2-yl)picolinamide]	0.062 µM	> 10 µM
O=C(NC(c1ccccn1)C(F)(F)F)c1ccc(N2CC(F)(F)C2)c(OCC2CC2)n1 (stereo not drawn) [Example 224, 6-Cyclopropylmethoxy-5-(3,3-difluoro-azetidin-1-yl)-pyridine-2-carboxylic acid (2,2,2-trifluoro-1-pyridin-2-yl-ethyl)-amide]	0.0222 µM	0.647 µM
O=C(N[C@@H](CC1CC1)c1nccs1)c1ccc(N2CC(F)(F)C2)c(OCC2CC2)n1 [Example 146, 6-Cyclopropylmethoxy-5-(3,3-difluoro-azetidin-1-yl)-pyridine-2-carboxylic acid ((S)-2-cyclopropyl-1-thiazol-2-yl-ethyl)-amide]	0.0366 µM	> 10 µM
CNC(=O)[C@H](CC(C)C)NC(=O)c1ccc(C2CC2)c(OCC2CCCO2)n1 (stereo partly drawn) [Example 184, 5-Cyclopropyl-N-((S)-4-methyl-1-(methylamino)-1-oxopentan-2-yl)-6-((tetrahydrofuran-2-yl)methoxy)picolinamide]	0.0039 µM	> 10 µM
CC(C)(CCO)NC(=O)c1ccc(C2CC2)c(OCC2CC2)n1 [Example 194, 5-Cyclopropyl-6-(cyclopropylmethoxy)-N-(4-hydroxy-2-methylbutan-2-yl)picolinamide]	0.0991 µM	> 10 µM
NC(=O)[C@H](NC(=O)c1ccc(C2CC2)c(OCC2CC2)n1)c1ccccc1 [Example 173, (R)-N-(2-Amino-2-oxo-1-phenylethyl)-5-cyclopropyl-6-(cyclopropylmethoxy)picolinamide]	0.0231 µM	> 10 µM
CCC(CC)(NC(=O)c1ccc(C2CC2)c(OCC2CCCO2)n1)C(=O)NC (stereo not drawn) [Example 250, 5-Cyclopropyl-6-(tetrahydro-furan-2-ylmethoxy)-pyridine-2-carboxylic acid (1-ethyl-1-methylcarbamoyl-propyl)-amide]	0.0095 µM	> 10 µM
N#C[C@H](NC(=O)c1ccc(C2CC2)c(OCC2CC2)n1)C1CC1 [Example 248, 5-Cyclopropyl-6-cyclopropylmethoxy-pyridine-2-carboxylic acid ((+)-cyano-cyclopropyl-methyl)-amide]	0.051 µM	> 10 µM
Cc1nc([C@H](NC(=O)c2ccc(C3CC3)c(OCC3CC3)n2)C2CC2)no1 [Example 197, (−)-5-Cyclopropyl-6-cyclopropylmethoxy-pyridine-2-carboxylic acid [cyclopropyl-(5-methyl-[1,2,4]oxadiazol-3-yl)-methyl]-amide]	0.0332 µM	> 10 µM
CNC(=O)C(C)(C)NC(=O)c1ccc(N2CCC(F)(F)C2)c(OCC2CC2)n1 [Example 80, 6-Cyclopropylmethoxy-5-(3,3-difluoro-pyrrolidin-1-yl)-pyridine-2-carboxylic acid (1-methyl-1-methylcarbamoyl-ethyl)-amide]	0.134 µM	0.0058 µM
CC(C)(NC(=O)c1ccc(C2CC2)c(OCC(F)(F)F)n1)c1nccs1 [Example 305, 5-Cyclopropyl-6-(2,2,2-trifluoro-ethoxy)-pyridine-2-carboxylic acid (1-methyl-1-thiazol-2-yl-ethyl)-amide]	0.0503 µM	> 10 µM
Cc1nc([C@H](CC2CC2)NC(=O)c2ccc(C3CC3)c(OCC(F)(F)C(F)(F)F)n2)no1 [Example 300, 5-Cyclopropyl-6-(2,2,3,3,3-pentafluoro-propoxy)-pyridine-2-carboxylic acid [(S)-2-cyclopropyl-1-(5-methyl-[1,2,4]oxadiazol-3-yl)-ethyl]-amide]	0.0318 µM	> 10 µM
Cc1nc([C@H](CC(C)C)NC(=O)c2ccc(C3CC3)c(OCC3CC3)n2)no1 [Example 242, 5-Cyclopropyl-6-cyclopropylmethoxy-pyridine-2-carboxylic acid [(+)-3-methyl-1-(5-methyl-[1,2,4]oxadiazol-3-yl)-butyl]-amide]	0.0012 µM	> 10 µM
CC(C)C[C@H](NC(=O)c1cccc(S(=O)(=O)CC(C)C)n1)C(N)=O [Example 330, 6-(2-Methyl-propane-1-sulfonyl)-pyridine-2-carboxylic acid ((S)-1-carbamoyl-3-methyl-butyl)-amide]	0.869 µM	> 10 µM
Cc1nc(C(NC(=O)c2ccc(N3CC(F)(F)C3)c(OCC3CC3)n2)C2CC2)no1 (stereo not drawn) [Example 221, 6-Cyclopropylmethoxy-5-(3,3-difluoro-azetidin-1-yl)-pyridine-2-carboxylic acid [cyclopropyl-(5-methyl-[1,2,4]oxadiazol-3-yl)-methyl]-amide]	0.0128 µM	10 µM
O=C(N[C@H](c1cccnc1)C(F)(F)F)c1ccc(C2CC2)c(OCC2CC2)n1 [Example 218, (R)-5-Cyclopropyl-6-(cyclopropylmethoxy)-N-(2,2,2-trifluoro-1-(pyridin-3-yl)ethyl)-picolinamide]	0.0241 µM	> 10 µM
CC(C)CC(NC(=O)c1ccc(N2CC(F)(F)C2)c(OCC2CC2)n1)c1cccnn1 (stereo not drawn) [Example 321, 6-Cyclopropylmethoxy-5-(3,3-difluoro-azetidin-1-yl)-pyridine-2-carboxylic acid (3-methyl-1-pyridazin-3-yl-butyl)-amide]	0.0189 µM	> 10 µM
CC(C)C[C@H](NC(=O)c1cccc(C(O)c2ccc(F)cc2)n1)C(N)=O (stereo partly drawn) [Example 317, 6-[(4-Fluoro-phenyl)-hydroxy-methyl]-pyridine-2-carboxylic acid ((S)-1-carbamoyl-3-methyl-butyl)-amide]	0.0242 µM	> 10 µM
CCC(CC)(NC(=O)c1ccc(C2CC2)c(O[C@H](CCO)C(F)(F)F)n1)C(=O)NC [Example 313, 5-Cyclopropyl-6-((R)-3-hydroxy-1-trifluoromethyl-propoxy)-pyridine-2-carboxylic acid (1-ethyl-1-methylcarbamoyl-propyl)-amide]	0.981 µM	> 10 µM
CC(C)C[C@H](NC(=O)c1ccc(N2CC(F)(F)C2)c(OCC2CC2)n1)c1cccnn1 [Example 355, 6-Cyclopropylmethoxy-5-(3,3-difluoro-azetidin-1-yl)-pyridine-2-carboxylic acid ((S)-3-methyl-1-pyridazin-3-yl-butyl)-amide]	0.0801 µM	> 10 µM
CC(C)C[C@@H](NC(=O)c1ccc(N2CC(F)(F)C2)c(OCC2CC2)n1)c1cccnn1 [Example 354, 6-Cyclopropylmethoxy-5-(3,3-difluoro-azetidin-1-yl)-pyridine-2-carboxylic acid ((R)-3-methyl-1-pyridazin-3-yl-butyl)-amide]	0.0149 µM	> 10 µM
CC(C)(NC(=O)c1ccc(C2CC2)c(OCC2CC2)n1)c1noc(N)n1 [Example 296, 5-Cyclopropyl-6-cyclopropylmethoxy-pyridine-2-carboxylic acid [1-(5-amino-[1,2,4]oxadiazol-3-yl)-1-methyl-ethyl]-amide]	0.0608 µM	> 10 µM
O=C(N[C@@H](CC1CC1)c1nccs1)c1ccc(C2CC2)c(OCC2CC2)n1 [Example 99, 5-Cyclopropyl-6-cyclopropylmethoxy-pyridine-2-carboxylic acid ((S)-2-cyclopropyl-1-thiazol-2-yl-ethyl)-amide]	0.0597 µM	> 10 µM
Cc1nc(C(C)(CC2CC2)NC(=O)c2ccc(N3CC(F)(F)C3)c(OCC3CC3)n2)no1 (stereo not drawn) [Example 341, 6-Cyclopropylmethoxy-5-(3,3-difluoro-azetidin-1-yl)-pyridine-2-carboxylic acid [2-cyclopropyl-1-methyl-1-(5-methyl-[1,2,4]oxadiazol-3-yl)-ethyl]-amide]	0.0084 µM	> 10 µM
CC(C)(NC(=O)c1ccc(C2CCOCC2)c(OCC2CC2)n1)c1nccs1 [Example 34, 6-Cyclopropylmethoxy-5-(tetrahydro-pyran-4-yl)-pyridine-2-carboxylic acid (1-methyl-1-thiazol-2-yl-ethyl)-amide]	0.0537 µM	> 10 µM
Cc1nc(C(C)(C)NC(=O)c2ccc(C3CC3)c(-c3cccc(Cl)c3)n2)no1 [Example 96, 6-(3-Chloro-phenyl)-5-cyclopropyl-pyridine-2-carboxylic acid [1-methyl-1-(5-methyl-[1,2,4]oxadiazol-3-yl)-ethyl]-amide]	0.0958 µM	1.44 µM
CC(C)(NC(=O)c1ccc(C2CCCC2)c(-c2cccc(Cl)c2)n1)c1nccs1 [Example 128, 6-(3-Chloro-phenyl)-5-cyclopentyl-pyridine-2-carboxylic acid (1-methyl-1-thiazol-2-yl-ethyl)-amide]	0.24 µM	> 10 µM
CC(C)(NC(=O)c1ccc(C(F)(F)F)c(OCC2CC2)n1)c1ncon1 [Example 119, 6-Cyclopropylmethoxy-5-trifluoromethyl-pyridine-2-carboxylic acid (1-methyl-1-[1,2,4]oxadiazol-3-yl-ethyl)-amide]	0.227 µM	> 10 µM
CNC(=O)C(C)(C)NC(=O)c1ccc(C)c(OCC2CC2)n1 [Example 36, 6-Cyclopropylmethoxy-5-methyl-pyridine-2-carboxylic acid (1-methyl-1-methylcarbamoyl-ethyl)-amide]	0.974 µM	> 10 µM
